# Measurements: PMC10581520 (Veterinární Medicína, 2023)
# Values joined by “and” are separate entries in the source; they are usually repeats but may differ in a detail not shown here. Equal values may be shown once. Read-outs that look alike come from different tables or passages of the source.
# Legend:
# Human liver microsomes = details: cited from earlier work
# patients = details: cited from earlier work; for arrhythmia risk category: associated risk of arrhythmia and possible TdP risk, ref Fanoe et al. 2014; for effect on QTc-interval and risk for torsades de pointes (TdP): patients; for risk group classification: ref www.crediblemeds.org
# [1] = system: Beagle dog liver microsomes; assay: Kinetic study: N-demethylation of CIT and DCIT in Beagle dog liver microsomes; type: in vitro ADME; details: for IC of N-demethylation, Beagle dogs versus humans: liver microsomes, dog data of this study compared with literature human data; for Km1 / Km2 / Vmax1 / Vmax2: dog liver microsomes
# [2] = as above; type: in vitro ADME; details: Beagle, dog, liver microsomes, pH 7.4
# Beagle dogs = details: cited from earlier work
# [3] = in dogs; ref Matsui et al. 1995; cited from earlier work
# [4] = system: serotonin [5-hydroxytryptamine (5-HT)] reuptake; details: compared with S-CIT; ref Hyttel et al. 1992; Hyttel 1993; cited from earlier work
# [5] = system: dog liver microsomes (CYP2D15, CYP3A12, CYP2C21/41); type: in vitro ADME, Beagle dog; details: for effect on the production of the DCIT and DDCIT enantiomers: dog liver microsomes, data not shown
# [6] = system: N-demethylation of DCIT; CYP3A12 (ketoconazole), CYP2C21/41 (omeprazole); type: in vitro ADME, Beagle dog; details: Beagle, dog, liver microsomes, pH 7.4, probe DCIT 10 and 100 μM, formation of DDCIT
# [7] = system: N-demethylation of DCIT; CYP2D15 (quinidine); type: in vitro ADME, Beagle dog; details: Beagle, dog, liver microsomes
# [8] = substrate CIT, metabolite R-DCIT
# [9] = substrate CIT, metabolite S-DCIT
# [10] = substrate DCIT, metabolite DDCIT
# [11] = substrate DCIT, metabolite R-DDCIT
# [12] = substrate DCIT, metabolite S-DDCIT
# [13] = 100 μM quinidine, 10 μM DCIT, n = 3
compound,measurement,setting,value
"CN(C)CCCC1(c2ccc(F)cc2)OCc2cc(C#N)ccc21 (stereo not shown) [CIT, citalopram]",Km,"Human liver microsomes; read-out: Km values, stereoselective CIT N-demethylation, human liver microsomes, ref Rochat et al. 1997, Olesen and Linnet 1999, von Moltke et al. 2001",≥ 17.3 µM
same,arrhythmia risk category,patients,Class B
same,effect on QTc-interval and risk for torsades de pointes (TdP),patients,increase the QTc-interval
same,risk group classification,patients,risk group 1
same,"IC of N-demethylation, Beagle dogs versus humans",[1],about 10 times higher
same,Km1,"[1]; substrate CIT, metabolite DCIT",1.1 µM and 1.1 ± 0.3 µM
same,Km2,"[1]; substrate CIT, metabolite DCIT",1 006 μM
same,Vmax1,"[1]; substrate CIT, metabolite DCIT",47 ± 3 pmol/(min × mg of protein)
same,Vmax2,"[1]; substrate CIT, metabolite DCIT",591 ± 28 pmol/(min × mg of protein)
same,Km1,[1]; [8],1.4 ± 0.5 µM
same,Vmax1,[1]; [8],21 ± 2 pmol/(min × mg of protein)
same,Vmax2,[1]; [8],338 ± 24 pmol/(min × mg of protein)
same,Km1,[1]; [9],1.0 ± 0.2 µM
same,Km2,[1]; [9],848 ± 69 µM
same,Vmax1,[1]; [9],26 ± 1 pmol/(min × mg of protein)
same,Vmax2,[1]; [9],264 ± 10 pmol/(min × mg of protein)
same,Km at 1 h,[2],≤ 1.4 µM
same,convulsive effect in dogs,"Beagle dogs; dogs, ref Boeck and Overo 1982",severe convulsive attacks
same,electrocardiographic changes in dogs,"Beagle dogs; dogs, ref Boeck and Overo 1982",no electrocardiographic changes were observed
same,mean elimination half-life,[3],9.6 h
"CNCCCC1(c2ccc(F)cc2)OCc2cc(C#N)ccc21 (stereo not shown) [DCIT, desmethylcitalopram]","IC values, N-demethylation of DCIT enantiomers","Human liver microsomes; humans, ref von Moltke et al. 2001",≤ 1.3 pmol/(min × mg protein)
same,Km,"Human liver microsomes; read-out: Km values, N-demethylation of DCIT enantiomers, humans, ref von Moltke et al. 2001",≥ 72 µM
same,potency as serotonin reuptake inhibitors,[4],lower than that of S-CIT
same,"IC of N-demethylation, Beagle dogs versus humans",[1],about 30 times higher
same,Km1,[1]; [10],0.6 ± 0.2 µM
same,Km2,[1]; [10],137 ± 18 µM
same,Vmax1,[1]; [10],44 ± 4 pmol/(min × mg of protein)
same,Vmax2,[1]; [10],155 ± 5 pmol/(min × mg of protein)
same,Km1,[1]; [11],0.3 ± 0.2 µM
same,Km2,[1]; [11],212 µM and 212 ± 24 µM
same,Vmax1,[1]; [11],11 ± 2 pmol/(min × mg of protein)
same,Vmax2,[1]; [11],105 ± 3 pmol/(min × mg of protein)
same,Km1,[1]; [12],0.6 ± 0.1 µM
same,Km2,[1]; [12],66 µM and 66 ± 11 µM
same,Vmax1,[1]; [12],31 ± 3 pmol/(min × mg of protein)
same,Vmax2,[1]; [12],55 ± 2 pmol/(min × mg of protein)
same,Km at 1 h,[2],≤ 1.4 µM
same,mean elimination half-life,[3],8.1 h
"N#Cc1ccc2c(c1)COC2(CCCN)c1ccc(F)cc1 (stereo not shown) [DDCIT, didesmethylcitalopram]",potency as serotonin reuptake inhibitors,[4],lower than that of S-CIT
same,plasma level to which DDCIT toxicity is related,"Beagle dogs; dog, ref Shanks et al. 2009",≥ 1 000 nM and ≥ 300 ng/ml
same,mean elimination half-life,[3],27.8 h
"CN(C)CCC[C@@]1(c2ccc(F)cc2)OCc2cc(C#N)ccc21 [S-CIT, S-citalopram]",arrhythmia risk category,patients,Class B
same,effect on QTc-interval and risk for torsades de pointes (TdP),patients,increase the QTc-interval
same,risk group classification,patients,risk group 1
Cc1nc2c([nH]1)c(=O)n(C)c(=O)n2Cc1ccco1 [furafylline],effect on the production of the DCIT and DDCIT enantiomers,[5],did not notably modify
CC(=O)N1CCN(c2ccc(OCC3COC(Cn4ccnc4)(c4ccc(Cl)cc4Cl)O3)cc2)CC1 (stereo not shown) [ketoconazole],inhibition at 1 h,[6],< 15%
COc1ccc2[nH]c([S+]([O-])Cc3ncc(C)c(OC)c3C)nc2c1 (stereo not shown) [omeprazole],inhibition at 1 h,[6],< 15%
C=C[C@H]1C[N@@]2CC[C@H]1C[C@@H]2[C@@H](O)c1ccnc2ccc(OC)cc12 [quinidine],"inhibition at 1 h, 100 μM","[7]; pH 7.4, probe DCIT 10 μM, formation of R-DDCIT",80.5%
same,"inhibition at 1 h, 100 μM","[7]; pH 7.4, probe DCIT 10 μM, formation of S-DDCIT",86.4%
same,"inhibition at 1 h, 100 μM","[7]; pH 7.4, probe DCIT 100 μM, formation of R-DDCIT",61.6%
same,"inhibition at 1 h, 100 μM","[7]; pH 7.4, probe DCIT 100 μM, formation of S-DDCIT",57.6%
same,difference in the production of S-DCIT from CIT in comparison to absence of the inhibitor,"[5]; 100 μM quinidine, 10 μM CIT, n = 5",36.9 ± 8.53 pmol/(min × mg protein)
same,difference of the production of R-DDCIT in comparison to absence of the inhibitor,[5]; [13],63.3 ± 2.72 pmol/(min × mg protein)
same,difference of the production of S-DDCIT in comparison to absence of the inhibitor,[5]; [13],172 ± 6.6 pmol/(min × mg protein)
Nc1ccc(S(=O)(=O)Nc2ccnn2-c2ccccc2)cc1 [sulphaphenazole],effect on the production of the DCIT and DDCIT enantiomers,[5],did not notably modify
